Measured values published in US20030232754A1, “Use of GLP-1 peptides” (priority 1996, published 2003).
Read-outs that look alike come from different tables or passages of the source. No end group written: not given here.

Experiments:
[1] = test system: Mice; assay: Appetite suppression in mice: sucrose consumption immediately after ip injection (Example 2); assay type: in vivo; conditions: mice fasted two days, ip 85 micrograms (3.4 mg/kg) in saline, tested immediately after injection, 10 minute period; p-value 0.002
Method: Mice were deprived of their normal food for two days and given free access to a 20% sucrose solution on the first day of food deprivation. After the two day food deprivation period, the mice were injected intraperitoneally with 0.5 ml of a solution containing the test substance. Immediately after injection, individual mice were placed in one of eight 15 cm square test boxes with a stainless steel grid floor and a glass drinking tube which projected into the box. […] Consumption of the sucrose solution was measured over a 10 minute period by electronically recording the total amount of contact with the sucrose solution during the test session. The degree of appetite suppression produced by a given test substance was determined by statistical comparison of the mean duration of sucrose consumption by control (vehicle treated) mice with that of mice treated with a test substance. The degree of appetite suppression in a treated group of mice was expressed as percent difference between the test and control group's response duration means. […]

[2] = test system: Mice; assay: Appetite suppression in mice: Complan consumption after subcutaneous injection (Example 4); assay type: in vivo; conditions: p<0.001
Method: The test method was as described in Example 3 except that the mice were pre-exposed to formula milk (Complan®—a nutritionally complete infant milk substitute) for one day, then fasted one day. On the test day, consumption of Complan® was measured for each mouse during a 10 min period.
Mice were tested for appetite suppression by subcutaneous injection of GLP-1(7-36)amide dissolved in phosphate buffered saline.

[3] = test system: rats; conditions: cited from earlier work
[4] = test system: Healthy human volunteers; assay: Effect of iv infusion on satiety, hunger, fullness, appetite (visual analogue scale) and ad libitum energy intake in a double-blind crossover trial; assay type: in vivo
Description: Healthy human volunteers (20 subjects) were in a double-blind crossover trial given an iv infusion of 50 pmol/(kg·h) of GLP-1(7-36)amide or saline on separate, but otherwise identical experimental days. The infusion was started at 9.00 and lasted until 15.00. At 9.45 the subjects received a fixed amount of breakfast and at 14.15 they had lunch of an identical composition but ad libitum. The subjects rated their feeling of satiety, hunger, fullness and appetite on a visual analogue scale every half hour. The results are given below:
The energy intake of each subjects was measured. The intakes were 3.9 MJ with GLP-1 and 4.3 MJ with Saline resulting in a p-value of 0.009.

[5] = iv infusion 50 pmol/(kg·h), 9.00 to 15.00, 20 healthy subjects, rated every half hour, p = 0.007

GLP-1(7-36)amide
Suppression of sucrose consumption [1]: 60%
Suppression of feeding (Complan consumption) ([2]; 1 mg/kg, 30 min after injection): 45%
Maximum effect, suppression of feeding (Complan consumption) ([2]; highest dose tested 20 mg/kg): 60%

GLP-1(1-36)amide (HDEFERHAEGTFTSDVSSYLEGQAAKEFIAWLVKGR-NH2; UniProt P01275 92-127, looked up, fragment) [fragment 1-36 of GLP-1 as C-terminal amide]
Effect on food intake ([3]; route not stated, Tang-Christensen et al. 1996): no effect

GLP-1(1-37)
Effect on food intake ([3]; intracerebroventricular administration, Tang-Christensen et al. 1996): profound effect
Effect on food intake ([3]; intracerebroventricular administration, Turton et al. 1996): profound effect
Effect on food intake ([3]; peripheral administration, Tang-Christensen et al. 1996): no significant effect
Energy intake ([4]; ad libitum lunch during iv infusion 50 pmol/(kg·h), saline 4.3 MJ, p-value 0.009): 3.9 mJ
Satiety (visual analogue scale rating) versus saline ([4]; iv infusion 50 pmol/(kg·h), 9.00 to 15.00, 20 healthy subjects, rated every half hour, p = 0.006): GLP-1 > Saline, p = 0.006
Appetite (visual analogue scale rating) versus saline [4, 5]: GLP-1 < Saline, p = 0.007
Hunger (visual analogue scale rating) versus saline [4, 5]: GLP-1 < Saline, p = 0.007
Fullness (visual analogue scale rating) versus saline ([4]; iv infusion 50 pmol/(kg·h), 9.00 to 15.00, 20 healthy subjects, rated every half hour, p = 0.010): GLP-1 > Saline, p = 0.010
